The values below are quoted from earlier work in patent US20110008867A1, “COMPOSITIONS AND METHODS FOR THE PRODUCTION OF A COMPOUND” (GREENLIGHT BIOSCIENCES, priority 2008, published 2011).

The structures appear in SMILES notation.

One series concerns E. coli. Conditions: in E. coli; concentration that inhibits cell growth.
The subject of another series is yeast. The following applies: in yeast; concentration that inhibits cell growth.

On to `CCCCO` [1-butanol], for which the “Inhibition Concentration” value in the series on E. coli was 1.3% in E. coli.
Consider `CCCCCCCCCCO` [1-decanol], for which, in the series on E. coli, the “Inhibition Concentration” value was 0.000236% in E. Coli.
As for `CCCCCO` [1-pentanol], the “Inhibition Concentration” value with E. coli was 0.25% in E. Coli.
Turning to `CCO` [Ethanol], the “Inhibition Concentration” value with E. coli is 5%; with yeast it was 15%.
